Literature values in patent US12310930B2 (YS PHARMTECH, priority 2016, dated 2025).
Where two headings read alike, the source gives them in different places.

- association constant (K) (pH 3.5, aqueous solution): 488 M⁻¹
- association constant (K) (pH 5.5, aqueous solution): 111 M⁻¹
SMILES: CNCC(O)c1ccc(O)c(O)c1 (single isomer, unassigned; (-)) [epinephrine, (−)-3,4-Dihydroxy-α-[(methylamino)methyl]benzyl alcohol]
